Assays:
Type in all cases: biochemical, Aloe barbadensis
AbCGT [1] = target: T1, AbCGT (Aloe vera, UniProt A0A7G9P699); test: Glycosyltransferase activity assay, purified AbCGT (wild type) with aglycon acceptors and UDP-Glc; details: aglycon acceptor with UDP-Glc, pH 7.4, 30 °C, up to 12 h; Reaction-1 to -3
AbCGT [2] = target: T1, AbCGT; test: Kinetic parameters of AbCGT (wild type); details: acceptor varied, saturating UDP-Glc, pH 7.4, 30 °C
Procedure: The reactions terminated by the addition of 200 μL of ice-cold methanol. Subsequently, samples were centrifuged at 15,000 × g for 30 min to collect the supernatant, and aliquots were analyzed by HPLC as described above. All experiments were performed in triplicate. The value of Km was calculated with the method of Lineweaver–Burk plot.

AbCGT [3] = test: Effects of pH, temperature and divalent metal ions on AbCGT activity (phloretin 17 + UDP-Glc)
Procedure: To assay for the optimal reaction temperature, the reaction mixtures were incubated at pH 11.0 and different temperatures (15–60 °C). To test the necessity of divalent metal ions for AbCGT, BaCl2, CaCl2, CoCl2, CuCl2, FeCl2, MgCl2, MnCl2, ZnCl2, and EDTA were used individually at a final concentration of 5 mM. […] For quantification, three parallel assays were routinely carried out.

AbCGT [4] = test: as above; remark: listed apart in the source
[5] = pH 5.0, citric acid-sodium citrate buffer, reaction-1
[6] = pH 5.0, citric acid-sodium citrate buffer, reaction-2
[7] = pH 5.0, citric acid-sodium citrate buffer, reaction-3
[8] = pH 6.0, Na2HPO4-NaH2PO4 buffer, reaction-1
[9] = pH 6.0, Na2HPO4-NaH2PO4 buffer, reaction-2
[10] = pH 6.0, Na2HPO4-NaH2PO4 buffer, reaction-3
[11] = pH 6.0, citric acid-sodium citrate buffer, reaction-1
[12] = pH 6.0, citric acid-sodium citrate buffer, reaction-2
[13] = pH 6.0, citric acid-sodium citrate buffer, reaction-3
[14] = pH 7.0, Na2HPO4-NaH2PO4 buffer, reaction-1
[15] = pH 7.0, Na2HPO4-NaH2PO4 buffer, reaction-2
[16] = pH 7.0, Na2HPO4-NaH2PO4 buffer, reaction-3
[17] = pH 7.0, Tris-HCl buffer, reaction-1
[18] = pH 7.0, Tris-HCl buffer, reaction-2
[19] = pH 7.0, Tris-HCl buffer, reaction-3
[20] = pH 8.0, Tris-HCl buffer, reaction-1
[21] = pH 8.0, Tris-HCl buffer, reaction-2
[22] = pH 8.0, Tris-HCl buffer, reaction-3
[23] = pH 9.0, Na2CO3-NaHCO3 buffer, reaction-1
[24] = pH 9.0, Na2CO3-NaHCO3 buffer, reaction-2
[25] = pH 9.0, Na2CO3-NaHCO3 buffer, reaction-3
[26] = pH 9.0, Tris-HCl buffer, reaction-1
[27] = pH 9.0, Tris-HCl buffer, reaction-2
[28] = pH 9.0, Tris-HCl buffer, reaction-3
[29] = pH 10.0, Na2CO3-NaHCO3 buffer, reaction-1
[30] = pH 10.0, Na2CO3-NaHCO3 buffer, reaction-2
[31] = pH 10.0, Na2CO3-NaHCO3 buffer, reaction-3
[32] = pH 11.0, Na2CO3-NaHCO3 buffer, reaction-1
[33] = pH 11.0, Na2CO3-NaHCO3 buffer, reaction-2
[34] = pH 11.0, Na2CO3-NaHCO3 buffer, reaction-3
[35] = pH 12.0, Na2CO3-NaHCO3 buffer, reaction-1
[36] = pH 12.0, Na2CO3-NaHCO3 buffer, reaction-2
[37] = pH 12.0, Na2CO3-NaHCO3 buffer, reaction-3

T1 sequence (A0A7G9P699 entry or part of it): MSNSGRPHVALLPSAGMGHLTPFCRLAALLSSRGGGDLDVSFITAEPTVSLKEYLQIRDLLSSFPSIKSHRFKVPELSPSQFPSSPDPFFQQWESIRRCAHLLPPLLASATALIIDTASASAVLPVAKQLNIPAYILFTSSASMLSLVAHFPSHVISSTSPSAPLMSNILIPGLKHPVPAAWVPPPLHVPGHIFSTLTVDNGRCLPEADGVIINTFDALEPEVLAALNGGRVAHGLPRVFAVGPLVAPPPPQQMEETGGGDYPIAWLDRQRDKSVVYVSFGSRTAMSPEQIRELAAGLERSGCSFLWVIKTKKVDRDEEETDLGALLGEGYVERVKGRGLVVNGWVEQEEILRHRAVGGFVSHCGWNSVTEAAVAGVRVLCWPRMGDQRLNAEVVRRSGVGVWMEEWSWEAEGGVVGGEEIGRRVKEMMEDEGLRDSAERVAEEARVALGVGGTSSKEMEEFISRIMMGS

conversion rates, O,N,S-glycosylation (AbCGT [1]): 0%
conversion rates, di-C-glycosylation (AbCGT [1]): 100%
conversion rates, mono-C-glycosylation (AbCGT [1]): 0%
Kcat (AbCGT [2]): 2 s⁻¹
Compound: O=C(CCc1ccc(O)cc1)c1c(O)cc(O)cc1O [Compound 17, phloretin]
conversion rates of Phloretin (AbCGT [3]; Temperature 15, reaction-1): 11
relative activity (AbCGT [3]; Temperature 15, reaction-1): 11.0
conversion rates of Phloretin (AbCGT [3]; Temperature 15, reaction-2): 10.9
relative activity (AbCGT [3]; Temperature 15, reaction-2): 10.9
conversion rates of Phloretin (AbCGT [3]; Temperature 15, reaction-3): 12.9
relative activity (AbCGT [3]; Temperature 15, reaction-3): 12.9
conversion rates of Phloretin (AbCGT [3]; Temperature 25, reaction-1): 18.8
relative activity (AbCGT [3]; Temperature 25, reaction-1): 18.8
conversion rates of Phloretin (AbCGT [3]; Temperature 25, reaction-2): 21.4
relative activity (AbCGT [3]; Temperature 25, reaction-2): 21.4
conversion rates of Phloretin (AbCGT [3]; Temperature 25, reaction-3): 24.7
relative activity (AbCGT [3]; Temperature 25, reaction-3): 24.7
conversion rates of Phloretin (AbCGT [3]; Temperature 30, reaction-1): 39.8
relative activity (AbCGT [3]; Temperature 30, reaction-1): 39.9
conversion rates of Phloretin (AbCGT [3]; Temperature 30, reaction-2): 36.9
relative activity (AbCGT [3]; Temperature 30, reaction-2): 37.0
conversion rates of Phloretin (AbCGT [3]; Temperature 30, reaction-3): 38.5
relative activity (AbCGT [3]; Temperature 30, reaction-3): 38.6
conversion rates of Phloretin (AbCGT [3]; Temperature 35, reaction-1): 64.8
relative activity (AbCGT [3]; Temperature 35, reaction-1): 64.9
conversion rates of Phloretin (AbCGT [3]; Temperature 35, reaction-2): 57.8
relative activity (AbCGT [3]; Temperature 35, reaction-2): 57.9
conversion rates of Phloretin (AbCGT [3]; Temperature 35, reaction-3): 60.7
relative activity (AbCGT [3]; Temperature 35, reaction-3): 60.8
conversion rates of Phloretin (AbCGT [3]; Temperature 40, reaction-1): 78.1
relative activity (AbCGT [3]; Temperature 40, reaction-1): 78.3
conversion rates of Phloretin (AbCGT [3]; Temperature 40, reaction-2): 81
relative activity (AbCGT [3]; Temperature 40, reaction-2): 81.2
conversion rates of Phloretin (AbCGT [3]; Temperature 40, reaction-3): 73.2
relative activity (AbCGT [3]; Temperature 40, reaction-3): 73.3
conversion rates of Phloretin (AbCGT [3]; Temperature 45, reaction-1): 99.4
relative activity (AbCGT [3]; Temperature 45, reaction-1): 99.6
conversion rates of Phloretin (AbCGT [3]; Temperature 45, reaction-2): 100
relative activity (AbCGT [3]; Temperature 45, reaction-2): 100.2
conversion rates of Phloretin (AbCGT [3]; Temperature 45, reaction-3): 100
relative activity (AbCGT [3]; Temperature 45, reaction-3): 100.2
conversion rates of Phloretin (AbCGT [3]; Temperature 50, reaction-1): 97.7
relative activity (AbCGT [3]; Temperature 50, reaction-1): 97.9
conversion rates of Phloretin (AbCGT [3]; Temperature 50, reaction-2): 98
relative activity (AbCGT [3]; Temperature 50, reaction-2): 98.2
conversion rates of Phloretin (AbCGT [3]; Temperature 50, reaction-3): 99.1
relative activity (AbCGT [3]; Temperature 50, reaction-3): 99.3
conversion rates of Phloretin (AbCGT [3]; Temperature 55, reaction-1): 96.5
relative activity (AbCGT [3]; Temperature 55, reaction-1): 96.7
conversion rates of Phloretin (AbCGT [3]; Temperature 55, reaction-2): 95.7
relative activity (AbCGT [3]; Temperature 55, reaction-2): 95.9
conversion rates of Phloretin (AbCGT [3]; Temperature 55, reaction-3): 93.3
relative activity (AbCGT [3]; Temperature 55, reaction-3): 93.5
conversion rates of Phloretin (AbCGT [3]; Temperature 60, reaction-1): 75.4
relative activity (AbCGT [3]; Temperature 60, reaction-1): 75.6
conversion rates of Phloretin (AbCGT [3]; Temperature 60, reaction-2): 85.7
relative activity (AbCGT [3]; Temperature 60, reaction-2): 85.9
conversion rates of Phloretin (AbCGT [3]; Temperature 60, reaction-3): 80
relative activity (AbCGT [3]; Temperature 60, reaction-3): 80.2
conversion rates of Phloretin (AbCGT [3]; [5]): 0.2
conversion rates of Phloretin (AbCGT [3]; [6]): 0.1
relative activity (AbCGT [3]; [6]): 0.1
conversion rates of Phloretin (AbCGT [3]; [7]): 0.2
relative activity (AbCGT [3]; [7]): 0.2
conversion rates of Phloretin (AbCGT [3]; [8]): 23.7
relative activity (AbCGT [3]; [8]): 23.8
conversion rates of Phloretin (AbCGT [3]; [9]): 25.1
conversion rates of Phloretin (AbCGT [3]; [10]): 25.4
relative activity (AbCGT [3]; [10]): 25.5
conversion rates of Phloretin (AbCGT [3]; [11]): 11.7
relative activity (AbCGT [3]; [11]): 11.8
conversion rates of Phloretin (AbCGT [3]; [12]): 15.2
relative activity (AbCGT [3]; [12]): 15.3
conversion rates of Phloretin (AbCGT [3]; [13]): 13
relative activity (AbCGT [3]; [13]): 13.1
conversion rates of Phloretin (AbCGT [3]; [14]): 30.8
relative activity (AbCGT [3]; [14]): 30.9
conversion rates of Phloretin (AbCGT [3]; [15]): 28
relative activity (AbCGT [3]; [15]): 28.1
conversion rates of Phloretin (AbCGT [3]; [16]): 30.7
relative activity (AbCGT [3]; [16]): 30.8
conversion rates of Phloretin (AbCGT [3]; [17]): 34.2
relative activity (AbCGT [3]; [17]): 34.4
conversion rates of Phloretin (AbCGT [3]; [18]): 33.6
relative activity (AbCGT [3]; [18]): 33.8
conversion rates of Phloretin (AbCGT [3]; [19]): 34.8
relative activity (AbCGT [3]; [19]): 35.0
conversion rates of Phloretin (AbCGT [3]; [20]): 35
relative activity (AbCGT [3]; [20]): 35.2
conversion rates of Phloretin (AbCGT [3]; [21]): 36.1
relative activity (AbCGT [3]; [21]): 36.3
conversion rates of Phloretin (AbCGT [3]; [22]): 35.4
relative activity (AbCGT [3]; [22]): 35.6
conversion rates of Phloretin (AbCGT [3]; [23]): 53
relative activity (AbCGT [3]; [23]): 53.2
conversion rates of Phloretin (AbCGT [3]; [24]): 52.2
relative activity (AbCGT [3]; [24]): 52.4
conversion rates of Phloretin (AbCGT [3]; [25]): 53.9
relative activity (AbCGT [3]; [25]): 54.2
conversion rates of Phloretin (AbCGT [3]; [26]): 45.9
relative activity (AbCGT [3]; [26]): 46.1
conversion rates of Phloretin (AbCGT [3]; [27]): 46.5
relative activity (AbCGT [3]; [27]): 46.7
conversion rates of Phloretin (AbCGT [3]; [28]): 53
relative activity (AbCGT [3]; [28]): 53.2
conversion rates of Phloretin (AbCGT [3]; [29]): 89.2
relative activity (AbCGT [3]; [29]): 89.6
conversion rates of Phloretin (AbCGT [3]; [30]): 93
relative activity (AbCGT [3]; [30]): 93.4
conversion rates of Phloretin (AbCGT [3]; [31]): 92.7
relative activity (AbCGT [3]; [31]): 93.1
conversion rates of Phloretin (AbCGT [3]; [32]): 99.2
relative activity (AbCGT [3]; [32]): 99.7
conversion rates of Phloretin (AbCGT [3]; [33]): 100
relative activity (AbCGT [3]; [33]): 100.5
conversion rates of Phloretin (AbCGT [3]; [34]): 99.4
relative activity (AbCGT [3]; [34]): 99.9
conversion rates of Phloretin (AbCGT [3]; [35]): 0
relative activity (AbCGT [3]; [35]): 0.0
conversion rates of Phloretin (AbCGT [3]; [36]): 0
relative activity (AbCGT [3]; [36]): 0.0
conversion rates of Phloretin (AbCGT [3]; [37]): 0
relative activity (AbCGT [3]; [37]): 0.0
relative activity (AbCGT [4]; [5]): 0.2
relative activity (AbCGT [4]; [9]): 25.2

— paper PMC7558026, “Exploring and applying the substrate promiscuity of a C-glycosyltransferase in the chemo-enzymatic synthesis of bioactive C-glycosides” (Nature Communications, 2020)
